In patent US20250092050A1, “1-AMINOBENZO[4,5]IMIDAZO[1,2-A]PYRAZINE-3-FORMAMIDE COMPOUND, AND PREPARATION THEREFOR AND USE THEREOF” (SUN YAT-SEN UNIVERSITY, priority 2022, published 2025):
Read-outs that look alike come from different tables or passages of the source.

Biological target: adenosine A2A receptor (Homo sapiens, UniProt P29274)
Assay: Binding to the adenosine A2A receptor: displacement of radioligand [3H]-ZM241385 from membrane protein
Conditions: compound 10^-4 M, 1 nM [3H]-ZM241385
Protocol: The specific process was as follows: A membrane protein solution (60 μg/tube, containing ADA 2 mg/mL) and a radioligand 1 nM [3H]-ZM241385 were added to each tube. Different compounds with the concentration of 10^−4 M were added into the compound tubes respectively, shaken to mix uniformly, incubated at 37° C. for 30 minutes and the reaction was terminated in a water bath. Free and bound ligands were separated by suction filtration under negative pressure using GF/C glass fiber filter paper, washed three times with precooled 50 mM Tris-HCl, about 4 mL each time. Film was removed and placed upside down on the tray (i.e., with the grid side facing up), and baked for 3 minutes until dried. Dried small circular filter membrane was put into the liquid scintillation tube in sequence, and 2 mL of scintillation solution was added. [3H] count was then performed in a Multifunction Liquid Scintillation Counter. Each junction point was provided with triple tubes. and the average value was taken. Finally. data analysis was carried out to calculate the inhibition rate of the compound on the adenosine AzA receptor: […]

[1] = membrane protein 60 μg/tube, 37° C., 30 minutes, average of triple tubes, read-out: Adenosine A2A receptor inhibition rate
[2] = read-out: inhibition rate on adenosine A2A receptors (text summary of Table 1)

Sequence of adenosine A2A receptor (P29274 whole entry): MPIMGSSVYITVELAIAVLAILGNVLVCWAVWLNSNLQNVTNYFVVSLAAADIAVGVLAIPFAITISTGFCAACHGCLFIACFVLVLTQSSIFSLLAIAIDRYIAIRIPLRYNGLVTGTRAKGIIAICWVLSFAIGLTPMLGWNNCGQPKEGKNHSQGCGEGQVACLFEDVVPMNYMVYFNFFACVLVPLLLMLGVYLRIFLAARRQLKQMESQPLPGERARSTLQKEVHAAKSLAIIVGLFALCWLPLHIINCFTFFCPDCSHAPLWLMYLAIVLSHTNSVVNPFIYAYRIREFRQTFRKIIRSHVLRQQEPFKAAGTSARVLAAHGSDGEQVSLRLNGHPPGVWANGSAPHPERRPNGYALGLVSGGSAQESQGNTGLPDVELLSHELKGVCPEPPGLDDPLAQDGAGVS

Question: For `CCCCCNC(=O)c1cn2c(nc3ccccc32)c(N)n1` [Compound 14b], which inhibition at 100 µM [1] is on record?
Answer: 71 ± 4.02%

Question: For `Nc1nc(C(=O)NCCO)cn2c1nc1ccccc12` [Compound 14f], which inhibition at 100 µM [1] is on record?
Answer: 65.6 ± 4.23%

Question: Which results are given for `CC(NC(=O)c1cn2c(nc3ccccc32)c(N)n1)c1ccccn1` (stereo not drawn) [Compound 14u]?
Answer: inhibition at 100 µM [1]: 86.5 ± 1.02%; inhibition at 100 µM [2]: > 80%

Question: For `CC(NC(=O)c1cn2c(nc3ccccc32)c(N)n1)c1cccc2cccnc12` (stereo not drawn) [Compound 14v], which inhibition at 100 µM [1] is on record?
Answer: 61.6 ± 3.91%

Question: `CC(NC(=O)c1cn2c(nc3ccccc32)c(N)n1)c1cccc2cccnc12` (stereo not drawn) [Compound 14w] was tested. Which “Adenosine A2A receptor inhibition rate” value (membrane protein 60 μg/tube, 37° C., 30 minutes, average of triple tubes) did it give?
Answer: 78.27 ± 2.31%

Question: What about the inhibition at 100 µM [2] of the same compound?
Answer: > 70%

Question: For `CC(C)(NC(=O)c1cn2c(nc3ccccc32)c(N)n1)c1ccccn1` [Compound 14x], which inhibition at 100 µM [1] is on record?
Answer: 75.3 ± 4.07%

Question: What about the inhibition at 100 µM [2] of the same compound?
Answer: > 70%
